Results on one molecule are retold here after patent US12466818B2, “Thienyl-aniline compounds for treatment of dermal disorders” (NFlection Therapeutics, Inc., priority 2018, dated 2025).

Structures are written as SMILES. Bounds are passed on as bounds.

Experiment [1] addresses MEK1 (Homo sapiens (Human), UniProt Q02750). Put plainly: MEK Inhibition Assay-2 (Z'-LYTE biochemical assay). The settings on record: Z'-LYTE assay of Example 37; read-out: IC50 against MEK1. How it is done: MEK1 inhibitory activity of compounds were tested using the following procedure (protocol available at thermofisher.com/content/dam/LifeTech/migration/files/drug-discovery/pdfs.par.60256.file.dat/20130430%20ssbk %20customer %20protocol %20 and %20assa y %20conditions.pdf). The Z′-LYTE biochemical assay (ThermoFisher) employs a fluorescence-based, coupled-enzyme format and is based on the differential sensitivity of phosphorylated and non-phosphorylated peptides to proteolytic cleavage.
Test compounds in 100% DMSO were screened in 1% DMSO (final) in the well. For 10 point titrations, 3-fold serial dilutions are conducted from the starting concentration of 30 μM.
After the 1 hour incubation, 5 μL of a 1:1024 dilution of Development Reagent A (available from Invitrogen, catalog no. PV3295) was added.
ATP solutions were diluted to a 4× working concentration in Kinase Buffer (50 mM HEPES pH 7.5, 0.01% BRIJ-35, 10 mM MgCl2, 1 mM EGTA). ATP Km apparent was previously determined using a Z′-LYTE assay. The Development Reagent was diluted in Development Buffer (available from Invitrogen, catalog no. P3127).
Assay Protocol: 2.5 μL of 4× test compound or 100 nL of 100× Test Compound plus 2.4 μL Kinase Buffer, 5 μL of the 2× Peptide/Kinase Mixture, 2.5 μL of 4×ATP Solution were added to the plates and placed on a shake plate for 30-seconds. The kinase reaction was allowed to proceed for 60-minute at room temperature, before 5 μL of Development Reagent Solution was added, and the mixture agitated for 30-seconds on a shake plate. The mixture was incubated for 60-minute at room temperature. Fluorescence was measured using a plate reader and the data were analyzed.
This control yielded 100% cleaved peptide in the Development Reaction. The 100% Phosphorylation Control, which consisted of a synthetically phosphorylated peptide of the same sequence as the peptide substrate, was designed to allow for the calculation of percent phosphorylation. This control yielded a very low percentage of cleaved peptide in the Development Reaction. The 0% Phosphorylation and 100% Phosphorylation Controls allow for the calculation of the percent phosphorylation achieved in a specific reaction well.
The minimum emission ratio in a screen was established by the 0% Inhibition Control, which contained active kinase. This control was designed to produce a 10-50% phosphorylated peptide in the Kinase Reaction. Cascade assays may produce up to 70% phosphorylated peptide.
A known inhibitor control standard curve, 10 point titration, was run for each individual kinase on the same plate as the kinase to ensure the kinase was inhibited within an expected IC50 range previously determined.
The following controls are prepared for each concentration of Test Compound assayed. […] The expected value for a non-interfering compound should be 100%. Any value outside of 90% to 110% was flagged. […] The expected value for a non-fluorescence compound should be 0%. Any value>20% was flagged.
The data in Table A was calculated. XLfit from IDBS was used. The dose response curve was curve fit to model number 205 (sigmoidal dose-response model).
Table 3 lists the MEK1 inhibition assay results of selected compounds according to the above procedure.

Experiment [2] deals with HCT116 cells. The experiment in a line: Assay 3: HCT116 (Kras) GI50 assay (Cell Titer-Glo). The format is cell-based. The settings on record: Homo sapiens, HCT-116, 72 hours. As for the experimental part:
Alternatively, the following procedure can be used to measure cell-based activity. Test compounds were dissolved in DMSO in 10 mM stock. Cell Titer-Glo® 2.0 Luminescent cell viability assay reagent was purchased from Promega (Madison, WI). A375 and HCT116 cell lines were purchased from American Type Culture Collection (Manassas, VA). For A375 cells, cell culture media was DMEM+10% FBS. For HCT116 cells, cell culture media was McCoy's 5A+10% FBS. All media were supplemented with 100 μg/mL of penicillin, and 100 μg/mL of streptomycin. Cultures were maintained at 37° C. in a humidified atmosphere of 5% CO2 and 95% air.
Test compounds were diluted in DMSO solution with 10-dose and 3-fold dilutions in a source plate starting at 10 mM. 25 nL of each test compound was delivered from the source plate to each well of the 384-well cell culture plates (T=Final) by Echo 550. 25 μL of culture medium containing 2000 of A375 or HCT116 cells was added to each of the wells in duplicates of the cell culture plates (T=0 and T=Final). 25 μL of Cell Titer Glo 2.0 reagent was added to each well of cell culture plate (T=0). The contents were mixed on an orbital shaker for 2 min and incubated at room temperature for 15 min to stabilize luminescent signal. Luminescence was recorded by Envision 2104 Multilabel Reader (PerkinElmer, Santa Clara, CA). The number of viable cells in culture was determined based on quantitation of the ATP present in each culture well. The cells in cell culture plate (T=Final) were incubated with the compounds at 37° C., 5% CO2 for 72 hours. 25 μL of Cell Titer Glo 2.0 reagent was added to each well. The contents were mixed on an orbital shaker for 2 min and incubated at room temperature for 15 min to stabilize luminescent signal. Luminescence was recorded by Envision 2104 Multilabel Reader (PerkinElmer, Santa Clara, CA). The number of viable cells in culture was determined based on quantitation of the ATP present in each culture well. The GI50 curves were plotted using the GraphPad Prism 4 program based on a sigmoidal dose-response equation Y=Bottom+(Top-Bottom)/(1+10^((Log EC50−X)*HillSlope)). All parameters in the equation were calculated by GraphPad Prism 4 program. […] Accordingly, GI50 is the value of 10^X, where X was calculated by the Curve Fitting Equation when Y=50 using Excel.
Assay 3 is the HCT116 (Kras) GI50 (nM) assay as described in Example 39. A3 indicates an IC50 of less than or equal to 5 μM, and B3 indicates an IC50 of greater than 5 μM and less than or equal to 10 μM.
For orientation: ATP-based viability assays read luminescence as a measure of living cells.

Sequence of MEK1 (Q02750 whole entry): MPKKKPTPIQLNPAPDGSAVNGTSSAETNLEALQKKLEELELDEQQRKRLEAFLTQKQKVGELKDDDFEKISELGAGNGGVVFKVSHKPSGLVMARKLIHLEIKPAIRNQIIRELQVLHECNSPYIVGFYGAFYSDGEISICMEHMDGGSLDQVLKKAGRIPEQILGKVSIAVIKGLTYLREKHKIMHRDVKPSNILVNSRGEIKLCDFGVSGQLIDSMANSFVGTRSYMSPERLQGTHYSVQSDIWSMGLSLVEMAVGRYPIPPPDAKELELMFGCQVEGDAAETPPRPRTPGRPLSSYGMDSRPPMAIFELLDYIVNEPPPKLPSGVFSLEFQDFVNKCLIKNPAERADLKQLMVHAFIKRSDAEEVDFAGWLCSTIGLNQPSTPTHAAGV

Regarding `O=C1CCCc2c1sc(Nc1ccc(I)cc1F)c2C(=O)NOCCO` [Compound 1.029, 2-((2-Fluoro-4-iodophenyl)amino)-N-(2-hydroxyethoxy)-7-oxo-4,5,6,7-tetrahydrobenzo[b]thiophene-3-carboxamide], in experiment [1], the IC50 (usually the point on the concentration scale where inhibition reaches its midpoint) was no more than 150 nM. Further, in experiment [2], the GI50 (usually the concentration giving 50% growth inhibition) was no more than 5 µM.
